# Results from patent publication US20050244936A1, “Hydantoin-racemase” (DEGUSSA AG, priority 1999, published 2005).
# Legend:
# HyuA = assay: Substrate specificity of HyuA: racemization of 5-substituted hydantoins by ORD polarimetry; assay type: biochemical, Arthrobacter aurescens DSM 3747; settings: substrate conc. 0.9 mM; 100% racemase activity corresponds to 313 μ/mg by standard assay
# Description: Racemization of the 5-substituted hydantoins BH, IMH and MTEH by HyuA was examined (Tab. 2).
# Enzyme assays. Racemization of L-BH was measured by ORD-polarimerty (Model 341, Perkin Elmer Bodenseewerk, Überlingen, Germany) at a wavelength of 295 nm in the standard assay for racemase enzyme activity. 3 MM L-BH was dissolved in 0.1 M Tris, pH 3 at 45° C. in an ultrasonic waterbath, cooled to room temperature and the pH adjusted to pH 8.5 with 3 M NaOH. To 1 ml substrate solution 0.1 ml enzyme, diluted in 0.1 M Tris, pH 8.5, was added and the change in optical rotation determined at 37° C. by polarimetry (Teves et al., Fresenius' J. Anal. Chem. 1999, 363, 738-743). The racemization of MTEH and IMH by. HyuA was determined at substrate concentrations of 0.9 mM and recorded by ORD at 253 nm and 334 nm. The specific activities were calculated from initial reaction rates which were determined according to Teves et al. (1999). For determination of enzyme activity by HPLC, 1 mM L-IMH was dissolved as described above. The mixture containing 900 μl enzyme solution was incubated 5 min at 37° C. The reaction was stopped by addition of 400 μl 14% trichloroacetic acid and centrifugation in an Eppendorf centrifuge at full speed. 100 μl of the sample were diluted with 0.9 ml 0.1 M TrisHCl, pH 8.5, and D-IMH and L-IMH in the supernatant were separated by HPLC (Thermoseparation Products, Darmstadt, Germany) by injection of 20 μl sample into a Chiralpak WH-column (0.46×25 cm; Daicel Chemicals Industris LTD, Griesheim, Germany). The column was equilibrated with 0.25 mM CuSO4, pH 5.5. The flow rate was 1 ml/min at 50° C. and IMH detected at 254 nm. The chemical racemization of the substrate was taken into account. Racemization of […] substrate per minute was defined as one unit enzyme.
# [1] = room temperature, pH 8.5, 20 hour; cited from earlier work
# racemase HyuA = assay: Initial velocities at different concentrations of L-MTEH (kinetic plot); assay type: biochemical, Arthrobacter aurescens DSM 3747; settings: FIG. 6
# Description: The KM values of IMH and BH could not be determined due to the limited solubility of the substrates. Instead the initial velocities at different concentrations of L-MTEH were measured. […] Even at low substrate concentrations (>5 mM) inhibition is observed.
# Enzyme assays. Racemization of L-BH was measured by ORD-polarimerty (Model 341, Perkin Elmer Bodenseewerk, Überlingen, Germany) at a wavelength of 295 nm in the standard assay for racemase enzyme activity. 3 MM L-BH was dissolved in 0.1 M Tris, pH 3 at 45° C. in an ultrasonic waterbath, cooled to room temperature and the pH adjusted to pH 8.5 with 3 M NaOH. To 1 ml substrate solution 0.1 ml enzyme, diluted in 0.1 M Tris, pH 8.5, was added and the change in optical rotation determined at 37° C. by polarimetry (Teves et al., Fresenius' J. Anal. Chem. 1999, 363, 738-743). The racemization of MTEH and IMH by. HyuA was determined at substrate concentrations of 0.9 mM and recorded by ORD at 253 nm and 334 nm. The specific activities were calculated from initial reaction rates which were determined according to Teves et al. (1999). For determination of enzyme activity by HPLC, 1 mM L-IMH was dissolved as described above. The mixture containing 900 μl enzyme solution was incubated 5 min at 37° C. […] The flow rate was 1 ml/min at 50° C. and IMH detected at 254 nm. […]
Compound,Relative Activity (HyuA),fraction racemized to D-IMH (chemical racemization) [1],substrate concentration at which inhibition of the racemase is observed (racemase HyuA)
"O=C1NC(=O)[C@@H](Cc2ccccc2)N1 [D-BH, D-Benzylhydantoin]",95%,–,–
O=C1NC(=O)[C@@H](Cc2c[nH]c3ccccc23)N1 [D-IMH],12%,–,–
CSCCC1NC(=O)NC1=O [D-MTEH],8%,–,–
O=C1NC(=O)[C@H](Cc2c[nH]c3ccccc23)N1 [L-IMH],13%,about 10%,–
CSCCC1NC(=O)NC1=O [L-MTEH],7%,–,> 5 mM
